# Test results taken from patent US12414968B2, “Compositions comprising bacterially derived minicells and methods of using the same” (EnGeneIC Molecular Delivery Pty Ltd, priority 2018, dated 2025).
# Where two headings read alike, the source gives them in different places.
# Tests used:
# [1] = system: human lung cancer cell line A549; test: MTS cell proliferation assay, A549; format: cell-based; details: 72 hrs
# [2] = system: human breast cancer cell line MDA-MB-468; test: MTS cell proliferation assay, MDA-MB-468; format: cell-based; details: 72 hrs
# [3] = system: human colorectal cancer cell lines Caco-2 and HCT116; test: MTS cell proliferation assay, Caco-2 and HCT116; format: cell-based; details: 72 hrs
# [4] = system: Glioblastoma cell line U87-MG; test: MTS cell proliferation assay, U87-MG; format: cell-based; details: 72 hrs
# MiaPaca-2 cells = test: MTS cell proliferation assay, MiaPaca-2; format: cell-based, human; details: 72 hrs
# MiaPaca-2 GemR cells = test: MTS cell proliferation assay, MiaPaca-2 GemR; format: cell-based, human; details: 72 hrs
# RAW264.7 cells = RAW264.7 cells incubated directly with EDVs; format: cell-based, mouse; details: direct incubation
# Excerpt: Results: M1 macrophage polarization and dendritic cell maturation in response to EDV Treatment: Due to the fact that the EDV is derived from Salmonella Typhimurium bacteria, the outer EDV membrane contains a substantial lipopolysaccharide (LPS) content (MacDiarmid et al., 2007b). The interaction of high doses of LPS with macrophages is well known to result in macrophage activation and M1 polarization. To determine if the EDV was capable of eliciting a similar phenotypic response, RAW264.7 cells were incubated with Ep-EDV-682 and Ep-EDV and examined for changes in macrophage phenotype and cytokine production. Expression of the co-stimulatory CD86 expression is known to be a phenotypic indicator of macrophage polarization as well as a hallmark of the antitumor M1 tumor associated macrophages (TAMs) (Dong et al., 2016).
# Treatment of RAW264.7 cells with EDVs: RAW264.7 cells were seeded in 6-well plates at 3×10^5 cells per well and incubated overnight. […] Cells were harvested 6h and 24h post treatment using a cell scraper and samples were stained with DAPI (Sigma), anti-CD45 Brilliant Violet 510 (BioLegend), anti-CD86 APC-Cy7 (BioLegend), and anti-CD206 AF488 (R&D Systems) and assessed by flow cytometry.
# [5] = system: RAW264.7 cells co-cultured with treated 4T1 and CT26Ep12.1 cells; test: RAW264.7 / treated tumor cell co-culture; format: cell-based, mouse; details: then co-culture
# Experimental: Macrophage and DC/Tumor Cell Co-cultures: CT26Ep12.1 and 4T1 cells were harvested with Versene (Gibco) and cells were collected in 1 mL Eppendorf tubes. Cells were resuspended in 1 mL DMEM (Sigma) supplemented with 10% FBS (Bovogen) containing: Ep-EDV (1000:1 and 5000:1—EDV:cells); Ep-EDV-682 (500:1 and 1000:1—EDV:cells); Ep-EDV-Dox (10,000:1—EDV:cell), 100 pmol PNU-159682, 5 μM Doxorubicin, or media alone. […] Cells were then washed thoroughly with PBS to remove any non-adherent EDV or excess drug. Treated tumor cells were cultured overnight with either RAW264.7 or BMDC at a 1:1 ratio of tumor cells:RAW264.7/BMDC/JAWS II. Supernatants were collected for ELISA analysis. RAW264.7/tumor cell co-cultures were collected using a cell scraper and samples were stained with DAPI (Sigma), anti-CD45 Brilliant Violet 510 (BioLegend), anti-CD86 APC-Cy7, and anti-CD206 AF488 and assessed by flow cytometry. JAWS II/tumor cell and BMDC/tumor cell co-cultures were collected with versene and stained with DAPI (Sigma), CD11b AF488 (Abcam), CD11c PE (Molecular Probes), anti-CD45 Brilliant Violet 510 or PECy5 (BioLegend), anti-CD86 APC-Cy7, MHC Class II PECy5 (Thermo Fisher), MHC Class II Brilliant Violet 421 (BioLegend), 7-AAD (BioLegend), and/or CD80 PE (Thermo Fisher) and assessed by flow cytometry. […] RNA concentration was determined on an Eppendorf biophotometer plus. […]
# [6] = system: bone marrow derived dendritic cells (BMDC) with 4T1 cells; test: BMDC / treated 4T1 co-culture; format: cell-based, mouse
# Experimental: (§1) The effect of tumor cell death in response to Ep-EDV, Ep-EDV-682, and 682 treatment on dendritic cell maturation was also examined (FIGS. 27E-27I). Bone marrow derived dendritic cells (BMDC) were co-incubated with treated tumor cells (4T1 and CT26Ep12.1) for 48 h, followed by assessment of the production of the type 1 interferons IFNα and IFNβ. Increases in type 1 interferon production by dendritic cells is well established as a mechanism of dendritic cell maturation and enhanced antigen presentation as well as being vital for their interaction with other immune cell subsets including NK cells and T-cells (Fitzgerald-Bocarsly and Feng, 2007; Simmons et al., 2012).
# (§2) Bone Marrow Derived DCs (BMDC): Bone marrow was isolated from the femurs and tibias of Balb/c mice. […]
# (§3) Macrophage and DC/Tumor Cell Co-cultures: CT26Ep12.1 and 4T1 cells were harvested with Versene (Gibco) and cells were collected in 1 mL Eppendorf tubes. […] RAW264.7/tumor cell co-cultures were collected using a cell scraper and samples were stained with DAPI (Sigma), anti-CD45 Brilliant Violet 510 (BioLegend), anti-CD86 APC-Cy7, and anti-CD206 AF488 and assessed by flow cytometry. […] RNA concentration was determined on an Eppendorf biophotometer plus. […] Data was exported to excel and the relative quantitation was calculated from the ΔΔCt.
# [7] = system: bone marrow derived dendritic cells (BMDC) with CT26Ep12.1 cells; test: BMDC / treated CT26Ep12.1 co-culture; format: cell-based, mouse
# Experimental: as §1, §2, §3
# [8] = system: patient derived pancreatic ductal adenocarcinoma cells (head and tail); test: Drug sensitivity of patient derived PDAC cells; format: cell-based, human
# Experimental: PDAC cells obtained from resected tumor tissue from both the head and tail of the pancreas were examined for drug sensitivity.
# The dosed was administered over 20 min via a 20 ml niki pump and premedications were given prior to dosing as before (van Zandwijk et al., 2017). Serum biochemistry, haematology and cytokine expression was evaluated pre and 3 hours post each dose. CA19-9 and C-reactive protein levels were monitored at least bi-weekly. Peripheral Blood mononuclear cells (PBMCs) were examined by flow cytometry prior to dosing and at the end of the cycle for changes in anti-tumour immune cell numbers. Tumour tissue was obtained from the original surgical resection and PDAC cells were cultured and tested for drug sensitivity and surface receptors expression.
# [9] = system: drug-resistant cancer cells; details: Quintieri et al., 2005; cited from earlier work
# [10] = system: Adreno-cortical cancer cell lines ACC01 and ACC07; test: MTS cell proliferation assay, ACC01 and ACC07; details: 72 hrs, lines derived from Stage IV patients
# Experimental: All cells were incubated for a further 72 hrs followed by the colorimetric MTS cell proliferation assay (Cory et al., Cancer Commun., 3(7): 207-12 (1991)) using the CellTiter 96 AQueous One Solution Cell Proliferation Assay (Promega Corp., Madison, Wis., USA), according to the manufacturer's instructions. The colorimetric measurements were read at 490 nm.
# JAWSII cells = test: αGC-CD1d surface presentation on JAWSII cells (flow cytometry); format: cell-based, mouse; details: 8h to 48h post-treatment; vs minicells alone and untreated
# Experimental: Treatment of JAWSII spheroids with EDVαGC: JAWSII cells were treated with 1000 ng/ml αGC (positive control); empty minicells and minicellsαGC compared to untreated cells and collected at 8h, 16h, 24h and 48h post-treatment (FIG. 46A-46D).
# Initial treatment preparation: 6 hanging drop suspension samples were used for each treatment group per time point. 5×10^4 JAWSII cells and 5×10^8 minicells ([…]) were used for each treatment sample and cultured in JAWSII cell culture media in a total volume of 50 μl. Extra untreated samples were prepared for isotype controls. The appropriate amount of minicells were pelleted by centrifugation at 12,000 g for 7 min and the supernatant was carefully removed by pipetting. Appropriate amount of live JAWS cells (based on the cell count from the previous section) were added to the pelleted minicells. The minicells were then dissociated into single-minicells-cell suspensions by gentle pipetting. The final volume of each sample was then made up by the addition of sterile culture media. […]
# Staining the treated JAWSII cells with anti-alpha GalCer:mCD1d complex monoclonal antibody: The entire content of each hanging drop well was carefully collected using a P200 pipette and transferred into an Eppendorf tube. […] The samples were then analyzed using a Gallios flow cytometer.
SMILES,cytotoxicity [1],inhibition of proliferation / resistance of the cell line [2],inhibition of proliferation / resistance of the cell lines [3],inhibition of proliferation / resistance of the cell line [4],inhibition of proliferation / resistance of the cells (MiaPaca-2 cells),inhibition of proliferation / resistance of the cells (MiaPaca-2 GemR cells),CD86 expression (RAW264.7 cells),CD86 expression on RAW264.7 cells [5],production of TNF-α and IL-6 (Th1 cytokines) [5],type 1 interferon mRNA production [6],type 1 interferon mRNA production [7],drug sensitivity [8],IC50 ([8]; head and tail PDAC cells),drug sensitivity ([8]; listed as 682),IC50s for even drug-resistant cancer cells [9],cytotoxic effect / resistance of the cell lines [10],anti-GalCer:mCD1d staining (αGC surface presentation) (JAWSII cells)
"COc1cccc2c1C(=O)c1c(O)c3c(c(O)c1C2=O)C[C@@](O)(C(=O)CO)C[C@@H]3OC1CC2C(OC3C(OC)OCCN23)C(C)O1 (stereo partly drawn) [PNU-159682, 3′-deamino-3″,4′-anhydro-[2″(S)-methoxy-3″(R)-oxy-4″-morpholinyl] doxorubicin]",greater cytotoxicity,inhibited proliferation,inhibited proliferation,could inhibit proliferation,could inhibit proliferation,could inhibit proliferation,did not induce the same response,unable to produce any significant change,no increase,unable to elicit increases,unable to elicit increases,sensitive,pM range,extreme sensitivity,pM range,potent cytotoxic effects,
"CCCCCCCCCCCCCCCCCCCCCCCCCC(=O)N[C@@H](CO[C@H]1O[C@H](CO)[C@H](O)[C@H](O)[C@H]1O)[C@H](O)[C@H](O)CCCCCCCCCCCCCC [free α-GC, α-galactosylceramide]",,,,,,,,,,,,,,,,,clear shift
